{"source": "paper PMC10609854", "about": "(Pharmaceuticals, 2023)", "key": {"human sigma 1 receptor": {"target": "T1, human sigma 1 receptor (Homo sapiens, UniProt Q99720)", "T1 construct": "[^3H](+)pentazocine (agonist) in Jurkat cells; host or cells: Jurkat cells", "T1 sequence (Q99720 whole entry)": "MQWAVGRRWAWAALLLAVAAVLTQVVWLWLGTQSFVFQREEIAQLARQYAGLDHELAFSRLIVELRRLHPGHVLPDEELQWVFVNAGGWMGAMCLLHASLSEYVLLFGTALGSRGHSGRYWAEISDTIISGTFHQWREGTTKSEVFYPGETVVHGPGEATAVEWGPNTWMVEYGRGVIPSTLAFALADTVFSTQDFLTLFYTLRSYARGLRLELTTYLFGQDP", "experiment": "radioligand binding, human sigma 1 receptor ([3H](+)pentazocine, Jurkat cells)"}, "[1]": {"target": "T2, human kappa opioid receptor (Homo sapiens, UniProt P41145)", "T2 construct": "host or cells: RBL cells", "T2 sequence (P41145 whole entry)": "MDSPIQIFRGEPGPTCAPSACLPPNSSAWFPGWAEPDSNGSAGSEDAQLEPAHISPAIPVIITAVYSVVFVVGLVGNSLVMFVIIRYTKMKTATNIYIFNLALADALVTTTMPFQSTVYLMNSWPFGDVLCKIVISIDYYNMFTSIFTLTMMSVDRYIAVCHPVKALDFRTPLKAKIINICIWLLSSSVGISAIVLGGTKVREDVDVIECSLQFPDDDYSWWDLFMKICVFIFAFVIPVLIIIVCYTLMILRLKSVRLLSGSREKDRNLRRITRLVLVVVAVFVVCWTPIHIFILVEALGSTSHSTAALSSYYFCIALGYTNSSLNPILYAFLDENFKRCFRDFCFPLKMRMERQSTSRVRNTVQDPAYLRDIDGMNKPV", "experiment": "radioligand binding, human opioid kappa receptor ([3H]U69593, RBL cells)"}, "human μ opioid receptor": {"target": "T3, human μ opioid receptor (Homo sapiens, UniProt P35372)", "T3 construct": "host or cells: HEK293 cells", "T3 sequence (P35372 whole entry)": "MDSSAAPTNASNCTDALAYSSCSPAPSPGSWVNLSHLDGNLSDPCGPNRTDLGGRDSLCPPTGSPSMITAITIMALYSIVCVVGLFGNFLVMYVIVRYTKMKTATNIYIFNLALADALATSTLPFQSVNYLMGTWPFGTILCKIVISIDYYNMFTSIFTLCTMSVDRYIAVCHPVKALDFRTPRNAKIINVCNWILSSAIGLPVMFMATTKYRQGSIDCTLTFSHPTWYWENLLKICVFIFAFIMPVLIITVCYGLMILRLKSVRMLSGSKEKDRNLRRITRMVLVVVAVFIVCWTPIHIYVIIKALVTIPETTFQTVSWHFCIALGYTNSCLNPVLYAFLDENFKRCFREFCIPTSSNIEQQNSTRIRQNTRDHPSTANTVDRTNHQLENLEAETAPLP", "experiment": "radioligand binding, human opioid μ receptor ([3H]DAMGO, HEK293 cells)"}, "[2]": {"tested_on": "acute thermal pain (hot plate)", "experiment": "hot plate test", "format": "in vivo", "conditions": "mice, 30 mg/kg i.p., 30 min before test; saline control 17.93 ± 1.04 s", "method": "The hot plate test was performed according to classical method described in Eddy and Leimbach with modifications. At the beginning, animals were tested for their baseline pain sensitivity threshold. For further studies, only mice that fulfilled the criterium of pain response ≤30 s were used. […] The latency to pain response (licking the hind paw or jumping) was measured. The cut-off time was set to up to 60 s to avoid tissue damage, and mice not responding within 60 s were removed from the apparatus and assigned the score of 60 s."}, "formalin-induced pain": {"tested_on": "formalin-induced pain", "experiment": "formalin test", "format": "in vivo, mice", "method": "The mice received an intraperitoneal (i.p.) injection of either the test compound or a control solution. After 30 min, a 20 μL injection of a 2.5% formalin solution was administered into the right hind paw. Right after the formalin injection, the animals were individually placed into glass containers and observed for the following 30 min. During specific time intervals (0–5 min, referred to as Phase I, and 15–30 min, referred to as Phase II, post-formalin injection), the time spent by the animals licking or biting the injected paw was recorded.."}, "capsaicin-induced pain": {"tested_on": "capsaicin-induced pain", "experiment": "capsaicin test", "format": "in vivo", "conditions": "mice, all doses (10, 15 and 30 mg/kg i.p.)", "method": "The mice received an intraperitoneal (i.p.) injection of either the test compound or a control solution. After 30 min, an intraplantar injection of 1.6 µg capsaicin in a 20 μL solution of 0.9% NaCl was administered to the right hind paw. Right after the capsaicin injection, the animals were individually placed into glass containers and observed for the subsequent 5 min. During this observation period, the time that each animal spent licking or biting the injected paw was recorded."}, "[3]": {"tested_on": "OXPT-induced tactile allodynia", "experiment": "oxaliplatin-induced neuropathic pain, von Frey test", "format": "in vivo", "conditions": "mice", "method": "Neuropathy was induced by administering a single dose (10 mg/kg) of Oxaliplatin (OXPT) dissolved in a 5% glucose solution (Polfa Kutno, Poland). To assess the response to mechanical stimuli, the von Frey test was carried with application of the electronic von Frey unit (Bioseb, France). The apparatus contained a single flexible filament, which was used to apply increasing force ranging from 0 to 10 g to the plantar surface of the mouse’s hind paw. The crossing of pain threshold led to the paw withdrawal. The mechanical pressure that evoked the nocifensive response was subsequently recorded. The measurement was performed before the OXPT administration and 7 days afterwards. The compounds were administrated to the animals with developed mechanical allodynia observed as a statistically significant decrease in pain threshold. On the day of the experiment, each mouse was placed in an observation chamber with a wire mesh bottom and was allowed to habituate for 1 h. After the habituation period, the mouse pain threshold was tested 3 times alternately with at least a 30 s gap between each measurement. The mean of these three consecutive measurements was taken as a baseline value. The mice with tactile allodynia were i.p. pretreated with the tested compound or their combinations, and 30 min later the animals were tested again according to the same procedure."}, "SLIGRL-induced pruritus": {"tested_on": "SLIGRL-induced pruritus", "experiment": "SLIGRL-induced pruritus", "format": "in vivo", "conditions": "mice, 45 min observation", "method": "The area (around 2 cm^2) of the nape of mice was shaved at least 2 days prior to experiments. On the day of the experiment, each mouse was individually placed in plastic chambers (15 × 15 × 30 cm). After the 30 min period of habituation, the mice received an intradermal (i.d.) injection of histamine dihydrochloride (10 µmol/site), chloroquine (CQ, 200 µg/site), or SLIGRL-NH2 (40 nmol/site), which were dissolved in physiological saline and administrated at the constant volume of 20 μL. Immediately following the injection, scratching (series of movements considered as a single scratching bout usually consisted of three single scratches) of the injected site by the hind paw was counted for 60 min, 30 min, or 45 min after histamine, CQ, and SLIGRL-NH2 injection, respectively."}, "[4]": {"target": "human histamine H3 receptor", "set-up": "method as in PMID 28797771", "conditions": "[3H]Nα-methylhistamine in HEK293 cells; cited from earlier work"}, "[5]": {"tested_on": "(R)-(-)-α-methylhistamine-induced dipsogenia", "set-up": "method as in PMID 28797771", "conditions": "rats; cited from earlier work"}, "[6]": {"target": "human histamine H1 receptor", "set-up": "method as in PMID 28797771", "conditions": "cited from earlier work"}, "eqBuChE": {"tested_on": "eqBuChE", "set-up": "method as in PMID 34208297", "conditions": "cited from earlier work"}, "hMAO B": {"tested_on": "hMAO B", "set-up": "method as in PMID 34208297", "conditions": "cited from earlier work"}, "[7]": {"conditions": "up to 10 μM; cited from earlier work"}}, "note": "Several values for one entry are separate records, joined by “and”; a condition that tells them apart may be missing. Equal entries are not always repeated.", "data": [{"smiles": "O=C(O)C(=O)O.c1ccc(-c2ccc(OCCCCCN3CCCCCC3)cc2)cc1", "note": "[Compound E153, 1-(5-(4-Phenylphenoxy)pentyl)azepane hydrogen oxalate]", "values": [{"measurement": "IC50", "setting": "human sigma 1 receptor", "result": 2.4, "unit": "nM"}, {"measurement": "Ki", "setting": "human sigma 1 receptor", "result": 1.2, "unit": "nM"}, {"measurement": "inhibition at 1 µM", "setting": "human sigma 1 receptor; at 1 μM", "result": 95, "unit": "%"}, {"measurement": "inhibition at 1 µM", "setting": "[1]", "result": 52, "unit": "%"}, {"measurement": "inhibition at 1 µM", "setting": "human μ opioid receptor", "result": 11, "unit": "%"}, {"measurement": "latency time of the pain reaction, hot plate test", "setting": "[2]", "result": "37.60 ± 6.13", "unit": "s"}, {"measurement": "duration of the nociceptive response, acute phase of the formalin test", "setting": "formalin-induced pain; mice, 10, 15 and 30 mg/kg i.p., 0–5 min after formalin", "result": "did not significantly affect"}, {"measurement": "paw licking or biting behavior, late phase of the formalin test", "setting": "formalin-induced pain; mice, all doses tested (10, 15 and 30 mg/kg i.p.), 15–30 min after formalin", "result": "significantly attenuated"}, {"measurement": "paw licking or biting behavior, capsaicin test", "setting": "capsaicin-induced pain", "result": "significantly decreased"}, {"measurement": "von Frey paw withdrawal force, % of baseline", "setting": "[3]; 10 mg/kg i.p., early phase (3 h after OXPT), OXPT alone 60.13%", "result": 71.5, "unit": "%"}, {"measurement": "reversal of the effect of OXPT (von Frey)", "setting": "[3]; 10 mg/kg i.p., late phase (7 days after OXPT)", "result": "not in late phase"}, {"measurement": "von Frey paw withdrawal force, % of baseline", "setting": "[3]; 15 mg/kg i.p., early phase (3 h), OXPT alone 60.5%", "result": 80.0, "unit": "%"}, {"measurement": "von Frey paw withdrawal force, % of baseline", "setting": "[3]; 15 mg/kg i.p., late phase (7 days), OXPT alone 57.4%", "result": 79.4, "unit": "%"}, {"measurement": "von Frey paw withdrawal force, % of baseline", "setting": "[3]; 30 mg/kg i.p., early phase (3 h), OXPT alone 57.9%", "result": 97.9, "unit": "%"}, {"measurement": "von Frey paw withdrawal force, % of baseline", "setting": "[3]; 30 mg/kg i.p., late phase (7 days), OXPT alone 60.6%", "result": 87.9, "unit": "%"}, {"measurement": "scratch bouts, SLIGRL-induced pruritus", "setting": "SLIGRL-induced pruritus; 5 mg/kg i.p.", "result": "not effective"}, {"measurement": "scratch bouts, SLIGRL-induced pruritus", "setting": "SLIGRL-induced pruritus; 7.5 and 10 mg/kg i.p.", "result": "significantly diminished"}, {"measurement": "Ki", "setting": "[4]", "result": "34 nM and 33.9 nM"}, {"measurement": "ED50, (R)-(-)-α-methylhistamine-induced dipsogenia", "setting": "[5]", "result": 1.75, "unit": "mg/kg"}, {"measurement": "Ki", "setting": "[6]", "result": 1270, "unit": "nM"}, {"measurement": "IC50", "setting": "eqBuChE", "result": 590, "unit": "nM"}, {"measurement": "IC50", "setting": "hMAO B", "result": 240, "unit": "nM"}, {"measurement": "mutagenicity in the AMES test", "setting": "[7]", "result": "non-mutagenic"}]}]}
